Experimental data from ChEMBL document CHEMBL1131890, “Syntheses and evaluation of amidinobenzofuran derivatives as tryptase inhibitors” (Bioorg Med Chem Lett, 1999).

Tests used:
Prothrombin = Prothrombin (Homo sapiens, UniProt P00734); test: Inhibition of thrombin
Tryptase [1] = molecular target: T1, Tryptase (Homo sapiens, UniProt Q9BZJ3+Q15661+Q9NRR2); test: Inhibition of tryptase activity; assay type: protein assay
[2] = Compound was tested for inhibitory activity against tryptase; set-up: species or system Homo sapiens
Tryptase [3] = molecular target: T1, Tryptase; test: Compound was tested for inhibitory activity against tryptase; Not determined (value more than […]); assay type: protein assay
Rattus norvegicus = test: Effect of compound on PCA reaction in rats at a i.v. dose of 1 mg/kg 1 hr prior to antigen challenge; assay type: functional; details: route intravenous

Ki (Prothrombin) | Ki (Tryptase [1]) | SMILES | other results
24 µM | 1100 nM | N=C(N)Nc1ccc2oc(C(=O)N3CCN(C(=O)COc4ccc(OCC(=O)N5CCN(C(=O)c6cc7cc(NC(=N)N)ccc7o6)CC5)cc4)CC3)cc2c1 | –
– | 0.12 nM | N=C(N)c1ccc2oc(C(=O)N3CCN(C(=O)CCCCCCC(=O)N4CCN(C(=O)c5cc6cc(C(=N)N)ccc6o5)CC4)CC3)cc2c1 | –
32 µM | – | N=C(N)c1ccc2oc(C(=O)N3CCN(C(=O)CCCC(=O)N4CCN(C(=O)c5cc6cc(C(=N)N)ccc6o5)CC4)CC3)cc2c1 | Ki [2]: 0.0088 µM
23 µM | – | N=C(N)c1ccc2oc(C(=O)N3CCN(C(=O)CCCCC(=O)N4CCN(C(=O)c5cc6cc(C(=N)N)ccc6o5)CC4)CC3)cc2c1 | Ki [2]: 0.00086 µM
85 µM | – | N=C(N)c1ccc2oc(C(=O)N3CCN(C(=O)CCCCCC(=O)N4CCN(C(=O)c5cc6cc(C(=N)N)ccc6o5)CC4)CC3)cc2c1 | Ki [2]: 0.0012 µM
22 µM | 0.028 nM | N=C(N)c1ccc2sc(C(=O)N3CCN(C(=O)COc4ccc(OCC(=O)N5CCN(C(=O)c6cc7cc(C(=N)N)ccc7s6)CC5)cc4)CC3)cc2c1 | –
– | 6600 nM | CN(C)C(=N)c1ccc2oc(C(=O)N3CCN(C(=O)COc4ccc(OCC(=O)N5CCN(C(=O)c6cc7cc(C(=N)N(C)C)ccc7o6)CC5)cc4)CC3)cc2c1 | –
32 µM | 0.057 nM | N=C(N)c1ccc2oc(C(=O)N3CCN(C(=O)COc4ccc(OCC(=O)N5CCN(C(=O)c6cc7cc(C(=N)N)ccc7o6)CC5)cc4)CC3)cc2c1 | –
88 µM | 1.1 nM | N=C(N)c1ccc2oc(C(=O)N3CCN(C(=O)COc4ccccc4OCC(=O)N4CCN(C(=O)c5cc6cc(C(=N)N)ccc6o5)CC4)CC3)cc2c1 | –
82 µM | – | N=C(N)c1ccc2oc(C(=O)N3CCN(C(=O)CC(=O)N4CCN(C(=O)c5cc6cc(C(=N)N)ccc6o5)CC4)CC3)cc2c1 | Ki [2]: 0.65 µM
15 µM | 0.029 nM | N=C(N)c1ccc2oc(C(=O)N3CCN(C(=O)CO[C@H]4CCC[C@@H](OCC(=O)N5CCN(C(=O)c6cc7cc(C(=N)N)ccc7o6)CC5)CCC4)CC3)cc2c1 | inhibition in vivo at 1 mg/kg (Rattus norvegicus): 51%
– | 1100 nM | N=C(NCc1ccccc1)c1ccc2oc(C(=O)N3CCN(C(=O)COc4ccc(OCC(=O)N5CCN(C(=O)c6cc7cc(C(=N)NCc8ccccc8)ccc7o6)CC5)cc4)CC3)cc2c1 | –
51 µM | – | N=C(N)c1ccc2oc(C(=O)N3CCN(C(=O)CCC(=O)N4CCN(C(=O)c5cc6cc(C(=N)N)ccc6o5)CC4)CC3)cc2c1 | Ki [2]: 0.015 µM
230 µM | 0.019 nM | N=C(N)c1ccc2oc(C(=O)N3CCN(C(=O)CCCCCCCC(=O)N4CCN(C(=O)c5cc6cc(C(=N)N)ccc6o5)CC4)CC3)cc2c1 | –

Second part, the compound before the results:

SMILES | Ki (Prothrombin) | Ki (Tryptase [1]) | other results
N=C(N)c1ccc2oc(C(=O)N3CCN(C(=O)COc4ccc(OCC(=O)N5CCCCC5)cc4)CC3)cc2c1 | – | 60 nM | –
CCOC(=O)COc1ccc(OCC(=O)N2CCN(C(=O)c3cc4cc(C(=N)N)ccc4o3)CC2)cc1 | – | 210 nM | –
N=C(N)NCCCCCC(=O)N1CCN(C(=O)COc2ccc(OCC(=O)N3CCN(C(=O)CCCCCNC(=N)N)CC3)cc2)CC1 | – | 23000 nM | –
O=C(CCCC(=O)N1CCNCC1)C(=O)N1CCN(C(=O)COc2ccc(OCC(=O)N3CCN(C(=O)C(=O)CCCC(=O)N4CCNCC4)CC3)cc2)CC1 | – | – | Ki (Tryptase [3]): Value more than 1x10^4
N=C(N)c1ccc2oc(C(=O)N3CCN(C(=O)N4CCN(C(=O)c5cc6cc(C(=N)N)ccc6o5)CC4)CC3)cc2c1 | – | 460 nM | –
O=C(CCC(=O)N1CCNCC1)CC(=O)N1CCN(C(=O)COc2ccc(OCC(=O)N3CCN(C(=O)CC(=O)CCC(=O)N4CCNCC4)CC3)cc2)CC1 | – | – | Ki (Tryptase [3]): Value more than 1x10^4
N=C(N)c1ccc2oc(C(=O)N3CCN(C(=O)COc4ccc(OCC(=O)N5CCNCC5)cc4)CC3)cc2c1 | – | 67 nM | –
O=C(COc1ccc(OCC(=O)N2CCN(C(=O)c3cc4c(s3)CCNC4)CC2)cc1)N1CCN(C(=O)c2cc3c(s2)CCNC3)CC1 | – | 970 nM | –
N=C(N)NCCCCCCC(=O)N1CCN(C(=O)COc2ccc(OCC(=O)N3CCN(C(=O)CCCCCCNC(=N)N)CC3)cc2)CC1 | – | 13000 nM | –
O=C(COc1ccc(OCC(=O)N2CCN(C(=O)CC(=O)N3CCNCC3)CC2)cc1)N1CCN(C(=O)CC(=O)N2CCNCC2)CC1 | – | 13000 nM | –
N=C(N)c1ccc2oc(C(=O)N3CCN(C(=O)COc4ccc(OCC(=O)Nc5ccc(-c6c[nH]cn6)cc5)cc4)CC3)cc2c1 | 5.3 µM | – | Ki [2]: 0.0068 µM
N=C(N)c1ccc2oc(C(=O)N3CCN(C(=O)COc4ccc(OCC(=O)NCc5ccccc5)cc4)CC3)cc2c1 | 28 µM | – | Ki [2]: 0.037 µM
N=C(N)c1ccc2oc(C(=O)N3CCN(C(=O)COc4ccccc4)CC3)cc2c1 | – | 3000 nM | –
N=C(N)N1CCc2sc(C(=O)N3CCN(C(=O)COc4ccc(OCC(=O)N5CCN(C(=O)c6cc7c(s6)CCN(C(=N)N)C7)CC5)cc4)CC3)cc2C1 | 29 µM | 0.046 nM | –
N=C(N)NCCCCC(=O)N1CCN(C(=O)COc2ccc(OCC(=O)N3CCN(C(=O)CCCCNC(=N)N)CC3)cc2)CC1 | – | 80000 nM | –
